Measured values taken from ChEMBL document CHEMBL1130376, “Effects of taxoids from Taxus cuspidata on microtubule depolymerization and vincristine accumulation in MDR cells” (Bioorg Med Chem Lett, 1997).
In brackets after ≈: the same amount, converted by molar mass.

Tests used:
[1] = target: Tubulin alpha chain (Sus scrofa) (UniProt P02550); assay: Tested for inhibitory concentration against […]-induced depolymerization of microtubules; type: functional
[2] = Cytotoxicity against human epidermoid carcinoma KB cells; type: functional, cell-based
L1210 = assay: Cytotoxicity against murine leukemia L1210 cells; type: functional, cell-based, Mus musculus; details: Mus musculus, L1210; read-out: IC50
[3] = Vincristine (VCR) accumulation in multidrug resistant human ovarian cancer 2780 AD cells at a concentration 1 ug/mL; type: functional
[4] = Vincristine (VCR) accumulation in multidrug resistant human ovarian cancer 2780 AD cells at a concentration 10 ug/mL; type: functional

Chain of Tubulin alpha chain (Sus scrofa) (P02550 whole entry, looked up): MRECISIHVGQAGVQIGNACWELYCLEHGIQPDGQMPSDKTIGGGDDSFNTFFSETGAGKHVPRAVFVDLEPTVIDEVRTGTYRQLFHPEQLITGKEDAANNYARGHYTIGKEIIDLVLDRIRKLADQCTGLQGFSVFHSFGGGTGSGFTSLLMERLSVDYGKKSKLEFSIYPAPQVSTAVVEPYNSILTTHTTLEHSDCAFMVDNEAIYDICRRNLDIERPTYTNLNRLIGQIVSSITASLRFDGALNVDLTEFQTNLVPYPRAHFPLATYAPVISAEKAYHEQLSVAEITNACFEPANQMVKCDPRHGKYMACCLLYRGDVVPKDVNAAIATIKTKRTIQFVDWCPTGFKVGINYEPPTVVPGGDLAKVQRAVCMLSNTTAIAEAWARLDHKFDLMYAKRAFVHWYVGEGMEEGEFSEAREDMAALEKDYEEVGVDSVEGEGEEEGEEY

`CC(=O)O[C@H]1C(=O)[C@@]2(C)[C@H]([C@H](OC(=O)c3ccccc3)[C@]3(O)C[C@H](OC(=O)[C@H](O)[C@@H](NC(=O)c4ccccc4)c4ccccc4)C(C)=C1C3(C)C)[C@]1(OC(C)=O)CO[C@@H]1C[C@@H]2O` showed a Concentration [1] of 10 µM.
For `C=C1[C@@H](O)C[C@H](OC(C)=O)[C@@]2(C)[C@@H](OC(C)=O)[C@H](OC(=O)c3ccccc3)C3=C(C)[C@@H](O)C[C@@]3(C(C)(C)O)[C@@H](OC(C)=O)[C@H]12` [TAXCHININ A], the IC50 [2] was 0.4 µg/mL (≈ 0.651 µM), the IC50 (L1210) was > 10 µg/mL and the “vincristine accumulation (% of control)” value [3] was 143%. The “vincristine accumulation (% of control)” value [4] was 192%.
In the case of `C=C1[C@@H](O)CC[C@@]2(C)[C@@H](OC(C)=O)[C@H](OC(C)=O)C3=C(C)C(=O)C[C@@H]([C@@H](OC(C)=O)[C@H]12)C3(C)C` [TAXININE A], the IC50 [2] is reported as > 10 µg/mL, the IC50 (L1210) is reported as 8.9 µg/mL (≈ 18.7 µM) and the “vincristine accumulation (% of control)” value [3] is reported as 153%. The “vincristine accumulation (% of control)” value [4] was 461%.
With `C=C1[C@@H](OC(=O)CC(c2ccccc2)N(C)C)C[C@H](OC(C)=O)[C@@]2(C)[C@@H](OC(C)=O)[C@H](OC(C)=O)[C@@]3(O)C(C)=C(OC(C)=O)C[C@@H]([C@@H](OC(C)=O)[C@H]12)C3(C)C` (stereo partly specified) the IC50 [2] was 2.6 µg/mL (≈ 3.38 µM), the IC50 (L1210) was 2.5 µg/mL (≈ 3.25 µM) and the “vincristine accumulation (% of control)” value [3] was 133%. For the same compound, the “vincristine accumulation (% of control)” value [4] was 358%.
With `C/C=C(\C)C(=O)O[C@@H]1C2=C(C)[C@@H](O)C[C@@]2(C(C)(C)O)[C@@H](OC(C)=O)[C@@H]2[C@]3(OC(C)=O)CO[C@@H]3C[C@H](OC(C)=O)[C@@]2(C)[C@H]1OC(C)=O` the IC50 [2] was 0.3 µg/mL (≈ 0.461 µM), the IC50 (L1210) was 4 µg/mL (≈ 6.15 µM) and the “vincristine accumulation (% of control)” value [3] was 145%. For the same compound, the “vincristine accumulation (% of control)” value [4] was 206%.
For `CC(=O)O[C@H]1C[C@H]2[C@@H](OC(C)=O)/C=C3\C[C@](C)(C(=O)[C@H](O)C(=C1C)C2(C)C)[C@@H](OC(C)=O)C[C@@H]3OC(=O)C(O)C(c1ccccc1)N(C)C` (stereo partly specified), the IC50 [2] was > 10 µg/mL, the IC50 (L1210) was 7.1 µg/mL (≈ 10.4 µM) and the “vincristine accumulation (% of control)” value [3] was 119%. For the same compound, the “vincristine accumulation (% of control)” value [4] was 298%.
